Source: patent publication US10421761B2, “Compounds for kinase modulation, and indications therefor” (Plexxikon Inc., priority 2013, dated 2019)

Tested on: B9 cells
Settings: B9 cells

## CCCS(=O)(=O)Nc1ccc(F)c(C(=O)c2c[nH]c3ncc(-c4ccc(Cl)cc4)cc23)c1F [vemurafenib]
Repl. 1
  probe 1455104_at response, Mxd1 (MAX dimerization protein 1): 2.60
  probe 1455241_at response, BC037703 (cDNA sequence BC037703): 0.44
  probe 1455299_at response, Vgll3 (vestigial like 3 (Drosophila)): 0.50
  probe 1455981_at response, Gm11263 /// Gm12242 /// Gm13654 /// Gm14138 /// Gm16406 /// Gm4796 /// Gm6476 /// Gm9143 /// LOC100043734 /// LOC236932 /// LOC623245 /// LOC639593 /// Rps6: 0.41
  probe 1456150_at response, Jhdm1d (jumonji C domain-containing histone demethylase 1 homolog D (S. cerevisiae)): 1.99
  probe 1456174_x_at response, Ndrg1 (N-myc downstream regulated gene 1): 1.92
  probe 1456248_at response, Lce3f /// LOC630971 (late cornified envelope 3F /// hypothetical protein LOC630971): 2.26
  probe 1456284_at response, Tmem171 (transmembrane protein 171): 2.10
  probe 1456321_at response, Nipal1 (NIPA-like domain containing 1): 3.42
  probe 1456725_x_at response, Ezr (ezrin): 0.48
  probe 1456874_at response, Flrt2 (fibronectin leucine rich transmembrane protein 2): 0.52
  probe 1457042_at response, AI256396 (EST AI256396): 0.48
  probe 1457568_at response, Hnrnpd (heterogeneous nuclear ribonucleoprotein D): 0.44
  probe 1457666_s_at response, Ifi202b (interferon activated gene 202B): 3.60
  probe 1460220_a_at response, Csf1 (colony stimulating factor 1 (macrophage)): 0.40
  probe 1460302_at response, Thbs1 (thrombospondin 1): 0.49
  probe 1460472_at response, Cdk3 (cyclin-dependent kinase 3): 1.91
  probe 1460521_a_at response, Obfc2a (oligonucleotide/oligosaccharide-binding fold containing 2A): 3.03
  probe 1460695_a_at response, 2010111I01Rik (RIKEN cDNA 2010111I01 gene): 0.51
Repl. 2
  probe 1415828_a_at response, Serp1 (stress-associated endoplasmic reticulum protein 1): 1.88
  probe 1415936_at response, Bcar3 (breast cancer anti-estrogen resistance 3): 2.16
  probe 1416129_at response, Errfi1 (ERBB receptor feedback inhibitor 1): 3.11
  probe 1416246_a_at response, Coro1a (coronin, actin binding protein 1A): 2.19
  probe 1416325_at response, Crisp 1 (cysteine-rich secretory protein 1): 4.39
  probe 1416401_at response, Cd82 (CD82 antigen): 2.64
  probe 1416488_at response, Ccng2 (cyclin G2): 2.31
  probe 1416527_at response, Rab32 (RAB32, member RAS oncogene family): 0.48
  probe 1417065_at response, Egr1 (early growth response 1): 4.50
  probe 1417130_s_at response, Angptl4 (angiopoietin-like 4): 2.79
  probe 1417328_at response, Ercc1 (excision repair cross-complementing rodent repair deficiency, complementation group 1): 2.01
  probe 1417488_at response, Fosl1 (fos-like antigen 1): 2.05
  probe 1417494_a_at response, Cp (ceruloplasmin): 0.43
  probe 1417495_x_at response, Cp (ceruloplasmin): 0.51
  probe 1417533_a_at response, Itgb5 (integrin beta 5): 0.51
  probe 1417625_s_at response, Cxcr7 (chemokine (C-X-C motif) receptor 7): 2.03
  probe 1417677_at response, Opn3 (opsin 3): 2.39
  probe 1417812_a_at response, Lamb3 (laminin, beta 3): 2.38
  probe 1417837_at response, Phlda2 (pleckstrin homology-like domain, family A, member 2): 2.11
  probe 1417902_at response, Slc19a2 (solute carrier family 19 (thiamine transporter), member 2): 2.07
  probe 1417962_s_at response, Ghr (growth hormone receptor): 2.14
  probe 1418349_at response, Hbegf (heparin-binding EGF-like growth factor): 2.70
  probe 1418350_at response, Hbegf (heparin-binding EGF-like growth factor): 2.46
  probe 1418538_at response, Kdelr3 (KDEL (Lys-Asp-Glu-Leu) endoplasmic reticulum protein retention receptor 3): 2.02
  probe 1418539_a_at response, Ptpre (protein tyrosine phosphatase, receptor type, E): 1.89
  probe 1419149_at response, Serpine1 (serine (or cysteine) peptidase inhibitor, clade E, member 1): 1.99
  probe 1419188_s_at response, Ccl27a /// Gm13306 (chemokine (C-C motif) ligand 27A /// predicted gene 13306): 2.36
  probe 1419317_x_at response, Lce3c (late cornified envelope 3C): 2.58
  probe 1419322_at response, Fgd6 (FYVE, RhoGEF and PH domain containing 6): 2.45
  probe 1419529_at response, Il23a (interleukin 23, alpha subunit p19): 2.53
  probe 1419671_a_at response, Il17rc (interleukin 17 receptor C): 0.45
  probe 1419722_at response, Klk8 (kallikrein related-peptidase 8): 1.94
  probe 1419816_s_at response, Errfi1 (ERBB receptor feedback inhibitor 1): 3.39
  probe 1420352_at response, Prss22 (protease, serine, 22): 3.13
  probe 1420380_at response, Cc12 (chemokine (C-C motif) ligand 2): 0.41
  probe 1420407_at response, Ltb4r1 (leukotriene B4 receptor 1): 2.24
  probe 1420450_at response, Mmp10 (matrix metallopeptidase 10): 3.93
  probe 1420537_at response, Kctd4 (potassium channel tetramerisation domain containing 4): 2.58
  probe 1420760_s_at response, Ndrg1 (N-myc downstream regulated gene 1): 2.04
  probe 1420913_at response, Slco2a1 (solute carrier organic anion transporter family, member 2a1): 1.96
  probe 1420955_at response, Vsnl1 (visinin-like 1): 0.47
  probe 1421134_at response, Areg (amphiregulin): 4.16
  probe 1421269_at response, Ugcg (UDP-glucose ceramide glucosyltransferase): 2.16
  probe 1421279_at response, Lamc2 (laminin, gamma 2): 2.11
  probe 1421403_at response, Pi15 (peptidase inhibitor 15): 1.96
  probe 1421551_s_at response, Ifi202b (interferon activated gene 202B): 3.42
  probe 1421668_x_at response, Speer3 (spermatogenesis associated glutamate (E)-rich protein 3): 2.60
  probe 1421679_a_at response, Cdkn1a (cyclin-dependent kinase inhibitor 1A (P21)): 4.13
  probe 1421888_x_at response, Aplp2 (amyloid beta (A4) precursor-like protein 2): 0.63
  probe 1421943_at response, Tgfa (transforming growth factor alpha): 1.92
  probe 1422028_a_at response, Ets1 (E26 avian leukemia oncogene 1, 5′ domain): 1.91
  probe 1422101_at response, Tnfrsf23 (tumor necrosis factor receptor superfamily, member 23): 1.93
  probe 1422138_at response, Plau (plasminogen activator, urokinase): 2.19
  probe 1422139_at response, Plau (plasminogen activator, urokinase): 2.82
  probe 1422222_at response, Ivl (involucrin): 2.27
  probe 1422240_s_at response, Sprr2h (small proline-rich protein 2H): 1.98
  probe 1422273_at response, Mmp1b (matrix metallopeptidase 1b (interstitial collagenase)): 3.17
  probe 1422324_a_at response, Pthlh (parathyroid hormone-like peptide): 2.28
  probe 1422537_a_at response, Id2 (inhibitor of DNA binding 2): 0.49
  probe 1422771_at response, Smad6 (MAD homolog 6 (Drosophila)): 0.47
  probe 1422924_at response, Tnfsf9 (tumor necrosis factor (ligand) superfamily, member 9): 1.94
  probe 1423017_a_at response, Il1rn (interleukin 1 receptor antagonist): 2.03
  probe 1423543_at response, Swap70 (SWA-70 protein): 1.95
  probe 1423597_at response, Atp8a1 (ATPase, aminophospholipid transporter (APLT), class I, type 8A, member 1): 1.88
  probe 1423635_at response, Bmp2 (bone morphogenetic protein 2): 2.23
  probe 1423690_s_at response, Gpsm1 (G-protein signalling modulator 1 (AGS3-like, C. elegans)): 3.20
  probe 1423933_a_at response, 1600029D21Rik (RIKEN cDNA 1600029D21 gene): 2.01
  probe 1424022_at response, Osgin1 (oxidative stress induced growth inhibitor 1): 1.92
  probe 1424090_at response, Sdcbp2 (syndecan binding protein (syntenin) 2): 4.46
  probe 1424306_at response, Elovl4 (elongation of very long chain fatty acids (FEN1/Elo2, SUR4/Elo3, yeast)-like 4): 2.35
  probe 1424383_at response, Tmem51 (transmembrane protein 51): 2.69
  probe 1424471_at response, Rapgef3 (Rap guanine nucleotide exchange factor (GEF) 3): 1.89
  probe 1424638_at response, Cdkn1a (cyclin-dependent kinase inhibitor 1A (P21)): 2.67
  probe 1424783_a_at response, Ugt1a1 /// Ugt1a10 /// Ugt1a2 /// Ugt1a5 /// Ugt1a6a /// Ugt1a6b /// Ugt1aTc /// Ugt1a9 (UDP glucuronosyltransferase 1 family): 0.43
  probe 1425452_s_at response, Fam84a (family with sequence similarity 84, member A): 2.53
  probe 1425660_at response, Btbd3 (BTB (POZ) domain containing 3): 1.92
  probe 1426037_a_at response, Rgs16 (regulator of G-protein signaling 16): 2.93
  probe 1426181_a_at response, I124 (interleukin 24): 4.76
  probe 1426260_a_at response, Ugt1a1 /// Ugt1a10 /// Ugt1a2 /// Ugt1a5 /// Ugt1a6a /// Ugt1a6b /// Ugt1aTc /// Ugt1a9 (UDP glucuronosyltransferase 1 family): 0.45
  probe 1426300_at response, Alcam (activated leukocyte cell adhesion molecule): 2.44
  probe 1426306_a_at response, LOC100046560 /// Maged2 (similar to melanoma antigen family D, 2 /// melanoma antigen, family D, 2): 1.87
  probe 1426708_at response, Antxr2 (anthrax toxin receptor 2): 2.15
  probe 1426806_at response, Obfc2a (oligonucleotide/oligosaccharide-binding fold containing 2A): 2.02
  probe 1426848_at response, LOC100047481 /// Sec24b (similar to SEC24 related gene family, member B (S. cerevisiae) /// Sec24 related gene family, member B (S. cerevisiae)): 0.75
  probe 1426972_at response, Sec24d (Sec24 related gene family, member D (S. cerevisiae)): 2.26
  probe 1427278_at response, Clip4 (CAP-GLY domain containing linker protein family, member 4): 2.03
  probe 1427364_a_at response, Odc1 (ornithine decarboxylase, structural 1): 2.62
  probe 1427512_a_at response, Lama3 (laminin, alpha 3): 2.47
  probe 1427527_a_at response, Pthlh (parathyroid hormone-like peptide): 2.37
  probe 1427885_at response, Pold4 (polymerase (DNA-directed), delta 4): 2.27
  probe 1428114_at response, Slc14a1 (solute carrier family 14 (urea transporter), member 1): 2.47
  probe 1428195_at response, Ahcyl2 (S-adenosylhomocysteine hydrolase-like 2): 2.06
  probe 1428228_at response, Pgm3 (phosphoglucomutase 3): 2.13
  probe 1428419_at response, 5430411K18Rik (RIKEN cDNA 5430411K18 gene): 2.28
  probe 1428851_at response, 1300014I06Rik (RIKEN cDNA 1300014I06 gene): 2.01
  probe 1429700_at response, 3110040M04Rik (RIKEN cDNA 3110040M04 gene): 2.47
  probe 1429844_at response, 2310043J07Rik (RIKEN cDNA 2310043J07 gene): 0.53
  probe 1430010_at response, Ncapd2 (non-SMC condensin I complex, subunit D2): 0.49
  probe 1430567_at response, Spink5 (serine peptidase inhibitor, Kazal type 5): 0.53
